Values of other authors as cited in patent publication US20030009042A1, “Method for making hydroxy-25-ene-vitamin D compounds” (Bone Care International, Inc., priority 1998, published 2003).
Where two headings read alike, the source gives them in different places.

Tests used:
[1] = oral, 0.5 μg/day, postmenopausal women
[2] = not given; remark: listed apart in the source

SMILES | effects on bone mass or mineral content (dosage levels below 0.5 μg/day) | efficacy in preventing or restoring loss of bone mass or bone mineral content (dosage ranges taught in the '596 Patent) | intestinal calcium absorption and calcium balance [1] | efficacy (bone mass) (1 μg/day, Japan, population with low calcium intake) | efficacy in increasing bone mass (two μg/day, patients exhibiting senile osteoporosis) | toxicity, percentage of the patients ([2]; 1 μg/day) | toxicity, percentage of the patients ([2]; 2 μg/day)
C=C1/C(=C\C=C2/CCC[C@]3(C)[C@@H]([C@H](C)CCCC(C)(C)O)CC[C@@H]23)C[C@@H](O)C[C@@H]1O [1α,25-dihydroxyvitamin D3] | no effects are observed | at best, modest efficacy | improved intestinal calcium absorption as well as calcium balance | – | – | – | –
C=C1/C(=C\C=C2/CCC[C@]3(C)[C@@H]([C@H](C)CCCC(C)C)CC[C@@H]23)C[C@@H](O)C[C@@H]1O [1α-hydroxyvitamin D3] | – | – | – | efficacy is found | found to have efficacy in increasing bone mass | approximately 20% | approximately 67%
